Source: patent US20260347319A1, “YAP/TAZ-TEAD ONCOPROTEINS INHIBITORS” (BridGene Biosciences, Inc., priority 2022, published 2026)

Tested on: TEAD1
Experiment: MCF-7 TEAD1-luciferase reporter assay (MCF7-TEAD-Luc)
Type: cell-based
Details: MCF7 cells, overnight; for IC50: Homo sapiens; for TEAD1-Luc MCF7: Max Inhibition: % of DMSO-treated control
Description: The ability of compounds to inhibit TEAD-dependent transcription was assessed in the MCF7-TEAD-Luc reporter assay (BPS #60618). Cells were seeded at 10,000 cells in 200 μL per well into white wall, clear bottom 96-well plates (Corning #3610) and incubated at 37° C. for 24 hours, then treated with serial diluted compounds overnight, and luciferase signal was measured using the ONE-Step Luciferase Assay System (BPS #60690) using an EnSight Multimode plate reader (PerkinElmer, model #MLDHH34000000, integration time 100 ms) with Kaleido 3.0. software. For data analysis, dose-dependent curves were plotted as “% inhibition” (% of DMSO-treated control wells), and were fitted by four-parametric model in GraphPad Prism to obtain IC50 values.

Structure (SMILES)	IC50 [nM]	TEAD1-Luc MCF7: Max Inhibition
C=CC(=O)N1CC[C@](O)(/C=C/c2ccc(C(F)(F)F)cc2)C1 (single isomer, unassigned) [Example 27, (S*,E)-1-(3-hydroxy-3-(4-(trifluoromethyl)styryl)pyrrolidin-1-yl)prop-2-en-1-one]	100 to 500	A (A ≥ 75%)
C=CC(=O)N1CC[C@@](O)(/C=C/c2ccc(C(F)(F)F)cc2)C1 (single isomer, unassigned) [Example 28, (R*,E)-1-(3-hydroxy-3-(4-(trifluoromethyl)styryl)pyrrolidin-1-yl)prop-2-en-1-one]	10 to 100	B (75% > B ≥ 50%)
C=CC(=O)N1CC[C@@](C)(/C=C/c2ccc(C(F)(F)F)cc2)C1 (single isomer, unassigned) [Example 29, 1-[(3S*)-3-methyl-3-{2-[4-(trifluoromethyl)phenyl]ethenyl}pyrrolidin-1-yl]prop-2-en-1-one]	10 to 100	A (A ≥ 75%)
C=CC(=O)N1CC[C@](C)(/C=C/c2ccc(C(F)(F)F)cc2)C1 (single isomer, unassigned) [Example 30, 1-[(3R*)-3-methyl-3-{2-[4-(trifluoromethyl)phenyl]ethenyl}pyrrolidin-1-yl]prop-2-en-1-one]	10 to 100	A (A ≥ 75%)
C=CC(=O)N1CC(/C=C/c2ccc(C(F)(F)F)cc2)C(C)(C)C1 (single isomer, unassigned) [Example 33]	100 to 500	A (A ≥ 75%)
C=CC(=O)N1CC[C@@H](/C=C\c2cccc(C(F)(F)F)c2)C1 (single isomer, unassigned) [Example 41, (S*,Z)-1-(3-(3-(trifluoromethyl)styryl)pyrrolidin-1-yl)prop-2-en-1-one]	10 to 100	A (A ≥ 75%)
C=CC(=O)N1CC[C@H](/C=C\c2cccc(C(F)(F)F)c2)C1 (single isomer, unassigned) [Example 42, (R*,Z)-1-(3-(3-(trifluoromethyl)styryl)pyrrolidin-1-yl)prop-2-en-1-one]	100 to 500	A (A ≥ 75%)
C=CC(=O)N1CC[C@H](/C=C/c2cccc(C(F)(F)F)c2)C1 (single isomer, unassigned) [Example 43, (R*,E)-1-(3-(3-(trifluoromethyl)styryl)pyrrolidin-1-yl)prop-2-en-1-one]	100 to 500	B (75% > B ≥ 50%)
C=CC(=O)N1CC[C@@H](/C=C/c2cccc(C(F)(F)F)c2)C1 (single isomer, unassigned) [Example 44, (S*,E)-1-(3-(3-(trifluoromethyl)styryl)pyrrolidin-1-yl)prop-2-en-1-one]	10 to 100	A (A ≥ 75%)
C=CC(=O)N1CC[C@H](C#Cc2cccc(C(F)(F)F)c2)C1 (single isomer, unassigned) [Example 56, (R*)-1-(3-((3-(trifluoromethyl)phenyl)ethynyl)pyrrolidin-1-yl)prop-2-en-1-one]	10 to 100	A (A ≥ 75%)
C=CC(=O)N1CC[C@@H](C#Cc2cccc(C(F)(F)F)c2)C1 (single isomer, unassigned) [Example 57, (S*)-1-(3-((3-(trifluoromethyl)phenyl)ethynyl)pyrrolidin-1-yl)prop-2-en-1-one]	10 to 100	A (A ≥ 75%)
C=CC(=O)N1CC[C@@](C#Cc2ccc(C(F)(F)F)cc2)(OC)C1 (single isomer, unassigned) [Example 58, (S*)-1-(3-methoxy-3-((4-(trifluoromethyl)phenyl)ethynyl)pyrrolidin-1-yl)prop-2-en-1-one]	≤ 10	B (75% > B ≥ 50%)
C=CC(=O)N1CC[C@](F)(C#Cc2ccc(C(F)(F)F)cc2)C1 (single isomer, unassigned) [Example 62, (S*)-1-(3-fluoro-3-((4-(trifluoromethyl)phenyl)ethynyl)pyrrolidin-1-yl)prop-2-en-1-one]	10 to 100	B (75% > B ≥ 50%)
